ChEMBL document CHEMBL1201862, “PubChem BioAssay data set” (2004)
Activity calls are given as the source filed them.

Experiments:
[1] = biological target: T1, Disintegrin and metalloproteinase domain-containing protein 17 (Homo sapiens, UniProt P78536); assay: inhibition of ADAM17 substrate cleavage – biochemical, quenched FRET substrate, counter-screen for ADAM10 exosite inhibitor project, dose response (AID 743253)
[2] = potency of ADAM10 substrate cleavage blockers – biochemical, QFRET, dose response (AID 743254);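 also: ADAM10 enzyme with the DM2 quenched FRET peptide as substrate; EDANS fluorescence gain as the protease cuts the substrate; inhibitor potency against ADAM10 proteolytic activity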
[3] = Luminescence Cell-Based Dose Response HTS to Identify Inhibitors of 5'UTR Stem-Loop Driven Prion Protein mRNA Translation in H4 Neuroglioblastoma Cells. [Related pubchem assays: 1827 (Project Summary), 1813 (Primary HTS)]; type: functional
[4] = A549 cell cytotoxicity, dose response, cytotoxicity control, plate reader, cherry-pick, antagonist series (AID 743412); type: functional, cell-based
[5] = luciferase reporter signal suppression in cells – H4 neuroglioma cells, luminescence, dose response (AID 1990); type: functional, cell-based
[6] = blockers of bursicon-stimulated LGR2 cAMP reporter – cell-based, HEK293, CRE-luciferase reporter, cherry pick, set 2, dose response (AID 743343); type: functional;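 also: transfected cells were stimulated with diluted bursicon conditioned medium after compound addition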
[7] = biological target: T2, Heat shock factor protein 1 (Mus musculus, UniProt P38532); assay: decrease of HSF1-responsive luciferase luminescence – cell-based, NIH3T3, dose retest, confirmation (AID 2382); type: functional;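 also: NIH3T3 fibroblasts with HSF1-driven luciferase reporter stressed by proteasome inhibitor MG132; luminescence from HSF1-driven luciferase expression after 8 hours of MG132 stress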
T2 sequence (P38532 whole entry): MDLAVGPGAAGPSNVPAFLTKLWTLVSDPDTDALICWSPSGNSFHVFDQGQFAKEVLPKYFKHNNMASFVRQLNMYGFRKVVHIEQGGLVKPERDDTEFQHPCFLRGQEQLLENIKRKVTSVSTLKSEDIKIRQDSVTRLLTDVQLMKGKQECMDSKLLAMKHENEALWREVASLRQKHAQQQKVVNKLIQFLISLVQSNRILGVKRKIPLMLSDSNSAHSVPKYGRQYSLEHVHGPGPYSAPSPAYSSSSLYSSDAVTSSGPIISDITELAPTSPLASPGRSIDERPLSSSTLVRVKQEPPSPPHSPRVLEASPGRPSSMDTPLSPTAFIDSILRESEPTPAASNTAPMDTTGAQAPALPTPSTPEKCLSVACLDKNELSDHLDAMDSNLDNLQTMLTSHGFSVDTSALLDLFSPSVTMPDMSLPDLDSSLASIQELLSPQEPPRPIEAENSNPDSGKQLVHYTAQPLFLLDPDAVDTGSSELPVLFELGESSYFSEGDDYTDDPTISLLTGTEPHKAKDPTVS

[8] = viability loss in HEK293 cells – cell-based, plate reader, cherry-picked samples, cytotoxicity control, dose response (AID 743446); type: functional
[9] = blockade of melanocortin 4 receptor signaling – cell-based, plate reader, cherry pick, counter-screen for LGR2 antagonist project, dose response (AID 743444); type: functional;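 also: transfected HEK 293 cells stimulated with alpha-MSH peptide; potency of inhibitors of the alpha-MSH evoked signal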
[10] = alpha-synuclein stem-loop luciferase translation blockers – H4 neuroglioma cells, luminescence, confirmation (AID 1988); type: functional, cell-based
[11] = toxicity toward HepG2 liver cells – cell-based, plate reader, cherry-pick, antagonist series, cytotoxicity control, dose response (AID 743416); type: functional
HEK293 [12] = assay: EBV LMP1 TES2 canonical NF-kB signalling blockers – cell-based, HEK293, luciferase, cherry-pick, dose response (AID 588343); type: functional; conditions: Homo sapiens
cells [13] = assay: cells
[14] = biological target: T3, Oxysterols receptor LXR-beta (Homo sapiens, UniProt P55055); type: functional, cell-based;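 also: Cell-based luminescence dose-response assay of agonist activity at LXR, run as a confirmatory counterscreen to a daf-12 agonist screen; HEK293 cells with Gal4-LXR fusion and GAL4-driven luciferase reporter; agonist potency from rising luciferase signal of a Gal4-LXR reporter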
T3 sequence (P55055 whole entry): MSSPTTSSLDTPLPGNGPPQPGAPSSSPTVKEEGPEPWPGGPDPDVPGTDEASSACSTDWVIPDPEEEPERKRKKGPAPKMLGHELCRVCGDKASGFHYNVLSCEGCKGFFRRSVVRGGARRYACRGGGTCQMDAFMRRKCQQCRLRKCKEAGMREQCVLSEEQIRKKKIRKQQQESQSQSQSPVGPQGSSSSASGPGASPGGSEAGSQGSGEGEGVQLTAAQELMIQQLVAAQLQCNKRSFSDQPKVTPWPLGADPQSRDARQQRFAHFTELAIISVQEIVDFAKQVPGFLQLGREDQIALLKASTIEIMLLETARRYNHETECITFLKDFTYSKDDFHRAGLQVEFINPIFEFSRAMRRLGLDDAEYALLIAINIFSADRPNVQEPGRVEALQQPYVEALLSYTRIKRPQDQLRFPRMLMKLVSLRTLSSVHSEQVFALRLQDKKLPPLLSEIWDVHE

[15] = reduction of Shn3 3'UTR-driven luciferase in osteoblasts – cell-based, Clone20 osteoblasts, firefly luciferase, cherry-picked, dose response (AID 624132); type: functional;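 also: firefly luciferase luminescence from reporter carrying the Shn3 3'UTR in osteoblasts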
cells [16] = type: functional, cell-based
[17] = loss of viability in HepG2 cells – cell-based, CellTiter-Glo, cherry-picked, cytotoxicity control for Shn3 inhibitor project, dose response (AID 624134); type: functional
[18] = OVCAR-3 cell viability loss – plate reader, dry powder samples, PAX8 inhibitor project, dose response (AID 743044); type: functional, cell-based
[19] = non-specific 3'UTR reporter inhibition in Clone20-Shn3RL – cell-based, Renilla luciferase, cherry-picked, counter-screen for Shn3 inhibitor project, dose response (AID 624133); type: functional
[20] = COV362 cell viability loss – plate reader, dry powder, SA12, cytotoxicity control for PAX8 inhibitor project, dose response (AID 743144); type: functional, cell-based
[21] = OV-90 cell viability loss – plate reader, dry powder, SA8, PAX8 inhibitor project, dose response (AID 743149); type: functional, cell-based
[22] = PAX8-dependent cell viability loss – plate reader, dry powder, dose response (AID 743049); type: functional, cell-based
[23] = OVCAR4 cell viability loss – plate reader, dry powder, SA11, cytotoxicity control for PAX8 inhibitor project, dose response (AID 743150); type: functional, cell-based; conditions: OVCAR-4
[24] = inhibitors acting on PAX2 in cells – cell-based, plate reader, dry powder samples, selectivity assay for PAX8 inhibitor project, dose response (AID 743048); type: functional;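 also: HEK293 cells carrying a WT1 promoter luciferase reporter driven by expressed Pax2; potency is for inhibition of Pax2 driven reporter signal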
cells [25] = type: functional, cell-based; remark: listed apart in the source
[26] = IGROV1 cell killing – plate reader, dry powder samples, PAX8 inhibitor project, dose response (AID 743043); type: functional, cell-based; conditions: IGROV-1
Paired box protein Pax-8 = Paired box protein Pax-8 (Homo sapiens, UniProt Q06710); assay: PAX8 transcriptional activity inhibition in RMG-I – RMG-I cells, luciferase, cherry-pick, dose response (AID 687027); type: functional, cell-based;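 also: luciferase reporter driven by Pax8 target thyroperoxidase promoter measured by SteadyGlo luminescence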
Sequence of Paired box protein Pax-8 (Q06710 whole entry): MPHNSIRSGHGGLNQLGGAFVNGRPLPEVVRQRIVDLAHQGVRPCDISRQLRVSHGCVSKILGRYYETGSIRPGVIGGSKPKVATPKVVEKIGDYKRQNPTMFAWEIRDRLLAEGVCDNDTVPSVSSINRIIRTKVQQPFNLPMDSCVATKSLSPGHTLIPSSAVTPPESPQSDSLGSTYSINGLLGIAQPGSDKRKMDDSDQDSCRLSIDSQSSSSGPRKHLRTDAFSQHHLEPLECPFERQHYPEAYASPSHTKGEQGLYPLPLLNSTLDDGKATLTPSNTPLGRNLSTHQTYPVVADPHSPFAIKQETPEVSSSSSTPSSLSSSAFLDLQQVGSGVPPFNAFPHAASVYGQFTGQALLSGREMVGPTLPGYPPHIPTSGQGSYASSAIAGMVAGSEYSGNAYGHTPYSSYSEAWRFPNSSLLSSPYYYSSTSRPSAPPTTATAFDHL

[27] = A2780 cell killing – plate reader, dry powder samples, cytotoxicity control, dose response (AID 743046); type: functional, cell-based
[28] = COV434 cell viability loss – plate reader, dry powder, SA7, cytotoxicity control for PAX8 inhibitor project, dose response (AID 743145); type: functional, cell-based
HEK293 [29] = assay: viability loss in HEK293T cells – cell-based, ATP luminescence, cherry-pick samples, cytotoxicity control, dose response (AID 687005); type: functional; conditions: Homo sapiens;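 also: cells exposed to compound for 48 hours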
[30] = HEK293 Cytotoxicity Assay Measured in Cell-Based System Using Plate Reader - 7071-01_Inhibitor_Dose_CherryPick_Activity_Set2.; type: functional
[31] = viability loss in MITF-independent A375 cells – cell-based, CellTiter-Glo luminescence, dry powder, set 2, counter-screen for MITF inhibitor project, dose response (AID 624489); type: functional; conditions: A-375;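 also: actives are compounds lowering A375 viability meaning general cytotoxicity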
[32] = cytotoxicity in MITF-independent A375 cells – cell-based, CellTiter-Glo luminescence, dry powder, set 4, counter-screen for MITF inhibitor project, dose response (AID 624364); type: functional; conditions: A-375;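 also: A375 melanoma cells are MITF independent so this is a counter screen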
[33] = biological target: T4, Rac GTPase-activating protein 1 (Homo sapiens, UniProt Q9H0H5); assay: blockers of MgcRacGAP-driven Rac1 GTP hydrolysis – biochemical, ADP Hunter fluorescence, primary and confirmatory, confirmation (AID 624330); type: functional
T4 sequence (Q9H0H5 whole entry): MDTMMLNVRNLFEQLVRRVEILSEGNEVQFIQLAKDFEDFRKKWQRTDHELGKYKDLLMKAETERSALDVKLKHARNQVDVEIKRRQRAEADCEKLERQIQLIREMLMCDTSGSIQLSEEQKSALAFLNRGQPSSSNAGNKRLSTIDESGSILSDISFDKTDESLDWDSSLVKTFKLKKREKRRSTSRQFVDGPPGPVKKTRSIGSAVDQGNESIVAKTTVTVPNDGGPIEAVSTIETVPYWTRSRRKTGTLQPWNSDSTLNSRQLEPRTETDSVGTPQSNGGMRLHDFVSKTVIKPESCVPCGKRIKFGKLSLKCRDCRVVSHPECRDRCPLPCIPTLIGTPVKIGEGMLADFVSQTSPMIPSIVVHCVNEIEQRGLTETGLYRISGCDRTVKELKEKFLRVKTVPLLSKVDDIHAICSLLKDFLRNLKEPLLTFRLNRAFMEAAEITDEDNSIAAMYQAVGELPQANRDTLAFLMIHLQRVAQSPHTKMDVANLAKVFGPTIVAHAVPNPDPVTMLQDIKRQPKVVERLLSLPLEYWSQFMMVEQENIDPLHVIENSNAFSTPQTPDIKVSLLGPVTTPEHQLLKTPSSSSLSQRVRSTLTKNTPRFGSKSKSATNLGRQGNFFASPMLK

[34] = biological target: T5, Microphthalmia-associated transcription factor (Homo sapiens, UniProt O75030); assay: reducers of TRPM1 reporter luminescence, concentration series – cell-based, SK-MEL-5, cherry-picked, set 3, MITF inhibitor project, dose response (AID 493073); type: functional;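 also: SK-MEL-5 melanoma cells with luciferase driven by the MITF target TRPM1 promoter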
T5 sequence (O75030 whole entry): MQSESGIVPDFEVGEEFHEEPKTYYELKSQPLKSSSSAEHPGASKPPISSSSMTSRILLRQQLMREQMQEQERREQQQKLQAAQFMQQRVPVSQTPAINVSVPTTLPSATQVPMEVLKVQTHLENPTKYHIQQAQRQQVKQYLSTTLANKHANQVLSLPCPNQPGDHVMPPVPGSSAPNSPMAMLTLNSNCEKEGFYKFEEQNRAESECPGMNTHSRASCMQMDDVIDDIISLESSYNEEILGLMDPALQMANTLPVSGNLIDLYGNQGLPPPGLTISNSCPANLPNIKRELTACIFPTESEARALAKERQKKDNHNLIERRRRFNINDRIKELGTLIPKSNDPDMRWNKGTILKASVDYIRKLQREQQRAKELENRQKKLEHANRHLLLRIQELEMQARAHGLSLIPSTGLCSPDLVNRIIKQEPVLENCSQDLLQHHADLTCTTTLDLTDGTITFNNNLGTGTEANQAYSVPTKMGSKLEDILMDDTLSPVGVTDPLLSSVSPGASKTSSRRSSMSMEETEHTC

Vero [35] = assay: cells; type: functional; conditions: Chlorocebus sabaeus
[36] = biological target: T1, Disintegrin and metalloproteinase domain-containing protein 17; assay: exosite inhibitors of ADAM17, dose response, biochemical (AID 743260)
[37] = inhibition of ADAM10 peptide cleavage – biochemical, FRET peptide substrate, recombinant human ADAM10, selectivity assay for ADAM17 exosite inhibitor project, dose response (AID 743259);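 also: ADAM10 enzyme cleaving a FRET peptide substrate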
Vero [38] = assay: cells; type: functional, cell-based; conditions: Chlorocebus sabaeus
[39] = viability of uninfected HEp-2 cells – cell-based, HTS, cytotoxicity control for RSV inhibitor project, dose response (AID 2410); type: functional; conditions: human respiratory syncytial virus

T1 sequence (P78536 whole entry, the tested form may be a part): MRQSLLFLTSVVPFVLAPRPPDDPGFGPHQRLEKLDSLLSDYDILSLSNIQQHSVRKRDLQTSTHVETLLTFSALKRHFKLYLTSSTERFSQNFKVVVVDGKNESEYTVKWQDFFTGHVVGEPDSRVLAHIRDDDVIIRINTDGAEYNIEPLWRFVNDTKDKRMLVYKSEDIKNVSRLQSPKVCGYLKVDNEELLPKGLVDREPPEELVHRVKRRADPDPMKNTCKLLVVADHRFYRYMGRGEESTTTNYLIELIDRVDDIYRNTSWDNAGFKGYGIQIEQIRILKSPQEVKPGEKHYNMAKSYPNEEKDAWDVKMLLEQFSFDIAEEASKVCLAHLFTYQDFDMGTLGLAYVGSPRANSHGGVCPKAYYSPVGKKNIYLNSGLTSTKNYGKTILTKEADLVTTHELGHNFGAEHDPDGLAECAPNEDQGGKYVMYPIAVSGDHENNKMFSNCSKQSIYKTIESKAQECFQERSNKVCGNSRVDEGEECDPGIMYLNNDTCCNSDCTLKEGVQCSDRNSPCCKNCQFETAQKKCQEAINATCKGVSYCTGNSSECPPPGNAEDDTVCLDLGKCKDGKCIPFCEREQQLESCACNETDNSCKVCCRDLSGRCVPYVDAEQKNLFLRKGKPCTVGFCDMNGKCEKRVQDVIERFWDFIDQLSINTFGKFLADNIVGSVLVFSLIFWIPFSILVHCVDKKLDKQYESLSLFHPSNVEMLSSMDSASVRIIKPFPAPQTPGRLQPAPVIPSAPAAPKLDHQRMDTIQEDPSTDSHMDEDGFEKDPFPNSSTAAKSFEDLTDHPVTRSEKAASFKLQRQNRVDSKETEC

CCC(=O)N(Cc1ccco1)c1nc(C(=O)Nc2ccc(Cl)cc2)c(C)s1
inactive: IC50 [1] > 69.5 µM | IC50 [2] > 69.5 µM

O=C(c1ccc(-c2nc3ccccc3s2)s1)N1CCOCC1
active: EC50 [3] 54 µM | EC50 [5] 1.42 µM | AC50 [6] 1.49 µM | EC50 [7] 1.07 µM | AC50 [8] 51.4 µM | AC50 [9] 2.04 µM | EC50 [10] 0.887 µM
inactive: AC50 [4] > 52 µM | AC50 [11] > 52 µM

Cc1ccnc(NC(=O)c2ccc(C(=O)c3ccccc3)cc2)c1
inactive: AC50 [4] > 52 µM | AC50 [11] > 52 µM
active: AC50 [6] 7.49 µM | AC50 [8] 31.2 µM | AC50 [9] 5.18 µM | AC50 (HEK293 [12]) 3.28 µM

Cn1c(=N)n(CC(=O)c2ccccc2)c2ccccc21
inactive: EC50 (cells [13]) > 67.5 µM | EC50 [14] > 67.5 µM
inconclusive: EC50 [3] 8.25 µM

Cc1cc(NC(=O)CCCS(=O)(=O)c2nc(-c3cccs3)cc(C(F)(F)F)n2)no1
active: AC50 [15] 1.73 µM | AC50 [17] 16.3 µM | AC50 [18] 15.5 µM | AC50 [19] 6.46 µM | AC50 [20] 14.3 µM | AC50 [21] 26.3 µM | AC50 [22] 18.6 µM | AC50 [23] 20.8 µM | AC50 [24] 17.3 µM | AC50 [26] 16.4 µM | AC50 (Paired box protein Pax-8) 6.85 µM | AC50 [27] 10.3 µM | AC50 [28] 12.1 µM
> 350 µM (not active): EC50 (cells [16]) | EC50 (cells [25])

COc1cc(/C=N/OCC(=O)Nc2ccc(OC(F)F)cc2)ccc1OCc1ccccc1
inactive: IC50 [1] > 69.5 µM | IC50 [2] > 69.5 µM

C[C@H](CO)N1C[C@H](C)[C@@H](CN(C)Cc2ccc(Oc3ccccc3)cc2)Oc2ccc(NC(=O)Nc3ccc4c(c3)OCO4)cc2C1=O
active: AC50 (HEK293 [29]) 26.4 µM | AC50 [30] 26.4 µM

CC(NC(=O)COc1ccccc1C(C)(C)C)c1ccccc1 (configuration not stated)
active: AC50 (HEK293 [29]) 51.4 µM | AC50 [30] 51.4 µM

O=C(NC1=C(c2ccc(OC(F)(F)F)cc2)C(=O)c2ccccc2C1=O)c1ccco1
active: AC50 [31] 21.1 µM | AC50 [32] 32.2 µM

O=C(O)c1cccc(N/N=C/c2cccs2)c1
active: IC50 [33] 75.3 µM | AC50 [6] 1.87 µM | AC50 [9] 2.41 µM | AC50 (Paired box protein Pax-8) 6.14 µM | AC50 [34] 1.51 µM
inactive: EC50 (cells [13]) > 67.5 µM | AC50 [4] > 52 µM | EC50 [14] > 67.5 µM | AC50 [11] > 52 µM

COc1cc(/C=N/NC(=O)c2cc(-c3ccccc3OC(C)C)nc3ccccc23)ccc1O
active: CC50 (Vero [35]) > 25 µM | EC50 [10] 13.7 µM | IC50 (Vero [38]) > 25 µM | CC50 [39] 29.6 µM
inactive: IC50 [36] > 69.5 µM | IC50 [37] > 69.5 µM
> 120 µM (not active): EC50 [3] | EC50 [5]

CC(=O)NC1=C(c2ccccc2)C(=O)c2ccccc2C1=O
active: AC50 [31] 8.87 µM | AC50 [32] 15.6 µM
